In PMC8459971, “Evaluation of the hepatotoxicity of the novel GPR40 (FFAR1) agonist CPL207280 in the rat and monkey” (PLoS ONE, 2021):
“And” between values parts separate entries of the source, which are not always exact repeats. Equal values may be shown once. Read-outs that look alike come from different tables or passages of the source. Values belong to the compound of their own block, whether it stands above or below them.

Experiments:
[1] = molecular target: MRP2 (Homo sapiens, UniProt Q92887); assay: Vesicular transport inhibition assay, MRP2; settings: MRP2; reference inhibitor 200 µM;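 note: membrane vesicles with probe substrate plus 2 mM glutathione, incubated with 4 mM ATP or AMP (AMP as background control), vesicle-retained substrate measured by liquid scintillation counting; ATP 4 mM vs AMP background separates transporter uptake from diffusion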
MRP2, sequence (Q92887 whole entry, the tested form may be a part): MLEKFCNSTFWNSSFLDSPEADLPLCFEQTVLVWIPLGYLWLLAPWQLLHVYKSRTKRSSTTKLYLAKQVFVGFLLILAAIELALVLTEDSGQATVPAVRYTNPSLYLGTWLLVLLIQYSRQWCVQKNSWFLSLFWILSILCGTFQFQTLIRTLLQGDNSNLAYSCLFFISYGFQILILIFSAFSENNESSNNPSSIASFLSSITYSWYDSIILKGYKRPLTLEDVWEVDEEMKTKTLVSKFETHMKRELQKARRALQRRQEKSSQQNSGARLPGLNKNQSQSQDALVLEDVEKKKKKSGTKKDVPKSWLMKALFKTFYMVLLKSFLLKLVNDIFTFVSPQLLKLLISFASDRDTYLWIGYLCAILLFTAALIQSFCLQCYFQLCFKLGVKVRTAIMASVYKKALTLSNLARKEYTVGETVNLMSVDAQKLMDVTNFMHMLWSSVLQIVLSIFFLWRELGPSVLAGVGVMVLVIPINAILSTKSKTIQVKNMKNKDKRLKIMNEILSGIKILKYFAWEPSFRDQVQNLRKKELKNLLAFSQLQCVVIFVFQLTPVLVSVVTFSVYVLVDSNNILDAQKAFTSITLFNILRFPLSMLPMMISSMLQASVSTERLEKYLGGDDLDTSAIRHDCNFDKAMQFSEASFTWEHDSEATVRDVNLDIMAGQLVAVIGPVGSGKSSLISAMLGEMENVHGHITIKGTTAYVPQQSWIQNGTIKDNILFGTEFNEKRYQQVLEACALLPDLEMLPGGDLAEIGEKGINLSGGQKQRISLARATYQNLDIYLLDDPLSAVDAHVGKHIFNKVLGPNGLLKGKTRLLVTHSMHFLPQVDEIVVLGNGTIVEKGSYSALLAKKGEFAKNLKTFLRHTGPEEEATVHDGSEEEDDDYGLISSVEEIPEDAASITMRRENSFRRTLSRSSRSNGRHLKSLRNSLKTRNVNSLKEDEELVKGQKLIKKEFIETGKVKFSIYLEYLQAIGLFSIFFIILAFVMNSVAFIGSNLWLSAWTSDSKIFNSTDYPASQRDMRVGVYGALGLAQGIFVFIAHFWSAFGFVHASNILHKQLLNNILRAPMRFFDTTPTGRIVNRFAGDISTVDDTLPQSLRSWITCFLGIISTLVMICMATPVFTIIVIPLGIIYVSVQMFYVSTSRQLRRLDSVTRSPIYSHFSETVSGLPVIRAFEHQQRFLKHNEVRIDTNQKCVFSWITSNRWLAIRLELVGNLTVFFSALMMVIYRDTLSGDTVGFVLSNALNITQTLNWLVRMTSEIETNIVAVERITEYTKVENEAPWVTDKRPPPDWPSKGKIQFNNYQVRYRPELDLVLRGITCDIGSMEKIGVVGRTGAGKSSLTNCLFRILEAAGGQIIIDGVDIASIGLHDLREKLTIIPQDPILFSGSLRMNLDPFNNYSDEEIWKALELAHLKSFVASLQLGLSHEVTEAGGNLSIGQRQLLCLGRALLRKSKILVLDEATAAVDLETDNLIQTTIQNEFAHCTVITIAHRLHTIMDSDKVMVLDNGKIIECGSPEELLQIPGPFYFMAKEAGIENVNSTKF

[2] = molecular target: T1, OAT1 (Homo sapiens, UniProt Q4U2R8); assay: Uptake transporter inhibition assay, OAT1; settings: OAT1; reference inhibitor 300 µM;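 note: HEK293FT cells expressing OAT1 or mock, uptake of radiolabeled probe substrate at 37 °C in HBSS pH 7.4 with test compound or solvent, cell lysate read by liquid scintillation counting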
T1 sequence (Q4U2R8 1-563): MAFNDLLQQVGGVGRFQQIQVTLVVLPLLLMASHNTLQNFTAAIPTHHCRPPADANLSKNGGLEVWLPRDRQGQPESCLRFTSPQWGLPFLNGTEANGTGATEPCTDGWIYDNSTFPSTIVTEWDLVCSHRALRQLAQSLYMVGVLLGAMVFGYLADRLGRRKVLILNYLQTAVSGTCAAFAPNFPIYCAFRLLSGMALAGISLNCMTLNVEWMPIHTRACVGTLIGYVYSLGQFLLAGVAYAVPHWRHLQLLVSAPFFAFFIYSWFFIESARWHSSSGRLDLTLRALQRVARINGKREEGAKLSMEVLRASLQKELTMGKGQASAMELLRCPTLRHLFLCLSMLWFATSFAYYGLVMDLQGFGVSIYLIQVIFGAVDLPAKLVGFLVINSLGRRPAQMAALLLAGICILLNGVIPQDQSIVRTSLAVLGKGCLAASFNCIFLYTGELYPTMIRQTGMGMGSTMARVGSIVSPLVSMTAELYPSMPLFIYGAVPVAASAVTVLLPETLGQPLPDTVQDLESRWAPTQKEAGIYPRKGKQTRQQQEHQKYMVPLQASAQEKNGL

[3] = molecular target: T2, OAT2v1 (Homo sapiens, UniProt Q9Y694); assay: Uptake transporter inhibition assay, OAT2v1; type: cell-based; settings: OAT2v1; reference inhibitor 300 µM
T2 construct: expressed in transfected cells; host or cells: HEK cells
T2 sequence (Q9Y694 1-546 isoform Q9Y694-2): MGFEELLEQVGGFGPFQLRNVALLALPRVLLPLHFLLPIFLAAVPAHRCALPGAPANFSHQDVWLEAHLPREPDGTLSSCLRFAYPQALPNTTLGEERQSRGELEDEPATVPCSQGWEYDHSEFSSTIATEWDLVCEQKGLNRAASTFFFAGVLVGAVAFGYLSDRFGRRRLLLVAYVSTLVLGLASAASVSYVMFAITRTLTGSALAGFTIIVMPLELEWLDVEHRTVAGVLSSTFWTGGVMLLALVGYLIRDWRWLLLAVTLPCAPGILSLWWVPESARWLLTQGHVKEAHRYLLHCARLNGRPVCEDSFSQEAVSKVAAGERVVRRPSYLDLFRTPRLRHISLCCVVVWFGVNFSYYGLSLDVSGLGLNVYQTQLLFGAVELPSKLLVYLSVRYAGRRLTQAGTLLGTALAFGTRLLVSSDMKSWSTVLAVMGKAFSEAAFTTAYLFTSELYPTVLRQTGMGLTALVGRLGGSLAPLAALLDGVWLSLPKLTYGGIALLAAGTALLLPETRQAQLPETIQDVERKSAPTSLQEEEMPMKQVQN
Procedure: (§1) For the uptake transporter inhibition assay, cells were washed twice with 100 μL of the appropriate buffer (HK, pH 7.4) for OATP1B1, followed by HBSS (pH 7.4) for (NTCP, OAT1, OAT2v1, OATP1A2, and OATP1B3). Uptake experiments were carried out at 37 ± 1°C in 50 μL of the respective buffer containing the probe substrate and the compound or solvent.

[4] = molecular target: OATP1A2 (Homo sapiens, UniProt P46721); assay: Uptake transporter inhibition assay, OATP1A2; settings: OATP1A2; reference inhibitor 500 µM;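 note: cellular uptake of a radiolabeled probe substrate in HBSS pH 7.4 at 37 °C with test compound or solvent, measured by liquid scintillation counting of cell lysates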
OATP1A2, sequence (P46721 whole entry): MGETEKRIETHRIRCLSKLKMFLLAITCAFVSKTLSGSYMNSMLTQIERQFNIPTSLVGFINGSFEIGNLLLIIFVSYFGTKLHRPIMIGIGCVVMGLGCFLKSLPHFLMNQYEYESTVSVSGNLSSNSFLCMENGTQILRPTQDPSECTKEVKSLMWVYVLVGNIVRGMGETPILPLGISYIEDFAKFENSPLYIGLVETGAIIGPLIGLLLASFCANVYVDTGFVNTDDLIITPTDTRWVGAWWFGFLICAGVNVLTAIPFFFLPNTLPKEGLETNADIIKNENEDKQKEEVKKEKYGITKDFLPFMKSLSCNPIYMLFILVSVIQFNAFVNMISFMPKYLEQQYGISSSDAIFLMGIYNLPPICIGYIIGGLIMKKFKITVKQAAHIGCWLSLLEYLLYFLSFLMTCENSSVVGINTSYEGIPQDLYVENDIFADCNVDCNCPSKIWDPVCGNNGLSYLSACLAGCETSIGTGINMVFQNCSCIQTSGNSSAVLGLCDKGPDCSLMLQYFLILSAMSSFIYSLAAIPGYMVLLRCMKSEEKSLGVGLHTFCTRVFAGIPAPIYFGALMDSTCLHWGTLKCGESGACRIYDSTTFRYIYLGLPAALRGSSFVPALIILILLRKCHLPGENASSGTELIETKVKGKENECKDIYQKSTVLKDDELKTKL

[5] = molecular target: T3, NTCP (Homo sapiens, UniProt Q14973); assay: Uptake transporter inhibition assay, NTCP; type: cell-based; settings: NTCP; reference inhibitor 300 µM
T3 construct: expressed in transfected cells; host or cells: HEK cells
T3 sequence (Q14973 1-349): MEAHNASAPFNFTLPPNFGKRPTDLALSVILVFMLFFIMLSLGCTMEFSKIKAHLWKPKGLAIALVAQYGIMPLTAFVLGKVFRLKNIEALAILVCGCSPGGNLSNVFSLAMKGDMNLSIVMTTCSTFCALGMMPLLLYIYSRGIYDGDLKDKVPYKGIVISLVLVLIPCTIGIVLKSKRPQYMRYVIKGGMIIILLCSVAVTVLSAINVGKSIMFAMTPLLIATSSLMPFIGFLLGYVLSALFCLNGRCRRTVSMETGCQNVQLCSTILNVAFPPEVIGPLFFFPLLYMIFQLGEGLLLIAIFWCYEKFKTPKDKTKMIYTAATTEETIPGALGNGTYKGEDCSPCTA
Procedure: as §1

[6] = test system: HepaRG spheroids; assay: HepaRG 3D spheroids, cell and mitochondrial health markers, 14 days; settings: TIMEPOINT 336
[7] = HepaRG spheroid, at the concentration (uM) given
[8] = HepaRG spheroid, plotted value at the concentration given

Accumulation (counts per minute; CPM) with AMP [1]: 198 CPM and 209 CPM | Accumulation (counts per minute; CPM) with ATP [1]: 183 CPM and 176 CPM | Accumulation (counts per minute; CPM) HEK293FT-MOCK [2]: 48 CPM and 31 CPM and 32 CPM and 38 CPM | Accumulation (counts per minute; CPM) HEK293FT-OAT1 [2]: 76 CPM and 82 CPM and 74 CPM and 83 CPM
Compound: CCc1oc2ccccc2c1C(=O)c1cc(Br)c(O)c(Br)c1 [Benzbromarone]

Compound: COc1ccc2c(c1)c(CC(=O)O)c(C)n2C(=O)c1ccc(Cl)cc1 [Indomethacin]
Accumulation (counts per minute; CPM) HEK293FT-OAT2v1 [3]: 503 CPM and 467 CPM and 353 CPM and 367 CPM

Compound: O=C1OC(c2ccc(O)c(S(=O)(=O)O)c2)(c2ccc(O)c(S(=O)(=O)O)c2)c2c(Br)c(Br)c(Br)c(Br)c21 [Sulfobromophthalein]
Accumulation (counts per minute; CPM) HEK293FT-MOCK [4]: 79 CPM and 76 CPM and 86 CPM | Accumulation (counts per minute; CPM) HEK293FT-OATP1A2 [4]: 880 CPM and 817 CPM and 881 CPM and 862 CPM

Accumulation (counts per minute; CPM) HEK293FT-MOCK [5]: 24 CPM and 25 CPM and 21 CPM and 27 CPM
Compound: C[C@H](CCC(=O)NCCS(=O)(=O)O)[C@H]1CC[C@H]2[C@@H]3[C@H](O)C[C@@H]4C[C@H](O)CC[C@]4(C)[C@H]3CC[C@]12C [TCDC]
Accumulation (counts per minute; CPM) HEK293-NTCP [5]: 257 CPM and 289 CPM and 184 CPM and 282 CPM

Compound: N#CC(C#N)=NNc1cccc(Cl)c1 [carbonyl cyanide 3-chlorophenylhydrazone]
Cellular ATP Mean Plotted Value ([6]; CONC 0.04 uM): 1.06 | DNA structure Mean Plotted Value ([6]; CONC 0.04 uM): 0.942 | Glutathione content Mean Plotted Value ([6]; CONC 0.04 uM): 0.925 | Mitochondrial mass Mean Plotted Value ([6]; CONC 0.04 uM): 1.13 | Mitochondrial membrane potential Mean Plotted Value ([6]; CONC 0.04 uM): 1.05 | Oxidative stress Mean Plotted Value ([6]; CONC 0.04 uM): 1.02 | Spheroid count Mean Plotted Value ([6]; CONC 0.04 uM): 1 | Spheroid size Mean Plotted Value ([6]; CONC 0.04 uM): 1.01 | Cellular ATP Mean Plotted Value ([6]; CONC 0.1 uM): 1.01 | DNA structure Mean Plotted Value ([6]; CONC 0.1 uM): 1.05 | Glutathione content Mean Plotted Value ([6]; CONC 0.1 uM): 0.914 | Mitochondrial mass Mean Plotted Value ([6]; CONC 0.1 uM): 1.06 | Mitochondrial membrane potential Mean Plotted Value ([6]; CONC 0.1 uM): 1.15 | Oxidative stress Mean Plotted Value ([6]; CONC 0.1 uM): 1 | Spheroid count Mean Plotted Value ([6]; CONC 0.1 uM): 1 | Spheroid size Mean Plotted Value ([6]; CONC 0.1 uM): 1.04 | Cellular ATP Mean Plotted Value ([6]; CONC 0.4 uM): 0.966 | DNA structure Mean Plotted Value ([6]; CONC 0.4 uM): 1.07 | Glutathione content Mean Plotted Value ([6]; CONC 0.4 uM): 0.993 | Mitochondrial mass Mean Plotted Value ([6]; CONC 0.4 uM): 0.994 | Mitochondrial membrane potential Mean Plotted Value ([6]; CONC 0.4 uM): 1.07 | Oxidative stress Mean Plotted Value ([6]; CONC 0.4 uM): 0.993 | Spheroid count Mean Plotted Value ([6]; CONC 0.4 uM): 1 | Spheroid size Mean Plotted Value ([6]; CONC 0.4 uM): 0.969 | Cellular ATP Mean Plotted Value ([6]; CONC 1 uM): 0.843 | DNA structure Mean Plotted Value ([6]; CONC 1 uM): 0.905 | Glutathione content Mean Plotted Value ([6]; CONC 1 uM): 0.819 | Mitochondrial mass Mean Plotted Value ([6]; CONC 1 uM): 1.11 | Mitochondrial membrane potential Mean Plotted Value ([6]; CONC 1 uM): 0.995 | Oxidative stress Mean Plotted Value ([6]; CONC 1 uM): 1.12 | Spheroid count Mean Plotted Value ([6]; CONC 1 uM): 1 | Spheroid size Mean Plotted Value ([6]; CONC 1 uM): 0.994 | Cellular ATP Mean Plotted Value ([6]; CONC 4 uM): 0.0197 | DNA structure Mean Plotted Value ([6]; CONC 4 uM): 0.726 | Glutathione content Mean Plotted Value ([6]; CONC 4 uM): 0.176 | Mitochondrial mass Mean Plotted Value ([6]; CONC 4 uM): 0.851 | Mitochondrial membrane potential Mean Plotted Value ([6]; CONC 4 uM): 0.876 | Oxidative stress Mean Plotted Value ([6]; CONC 4 uM): 1.36 | Spheroid count Mean Plotted Value ([6]; CONC 4 uM): 1 | Spheroid size Mean Plotted Value ([6]; CONC 4 uM): 0.828 | Cellular ATP Mean Plotted Value ([6]; CONC 10 uM): -0.000228 | DNA structure Mean Plotted Value ([6]; CONC 10 uM): 0.0956 | Glutathione content Mean Plotted Value ([6]; CONC 10 uM): 0.111 | Mitochondrial mass Mean Plotted Value ([6]; CONC 10 uM): 0.763 | Mitochondrial membrane potential Mean Plotted Value ([6]; CONC 10 uM): 0.627 | Oxidative stress Mean Plotted Value ([6]; CONC 10 uM): 1.36 | Spheroid count Mean Plotted Value ([6]; CONC 10 uM): 1 | Spheroid size Mean Plotted Value ([6]; CONC 10 uM): 0.751 | Cellular ATP Mean Plotted Value ([6]; CONC 40 uM): -0.000179 | DNA structure Mean Plotted Value ([6]; CONC 40 uM): 0.0736 | Glutathione content Mean Plotted Value ([6]; CONC 40 uM): 0.0824 | Mitochondrial mass Mean Plotted Value ([6]; CONC 40 uM): 0.515 | Mitochondrial membrane potential Mean Plotted Value ([6]; CONC 40 uM): 0.236 | Oxidative stress Mean Plotted Value ([6]; CONC 40 uM): 0.339 | Spheroid count Mean Plotted Value ([6]; CONC 40 uM): 1 | Spheroid size Mean Plotted Value ([6]; CONC 40 uM): 0.674 | Cellular ATP Mean Plotted Value ([6]; CONC 100 uM): 8.57e-5 | DNA structure Mean Plotted Value ([6]; CONC 100 uM): 0.0501 | Glutathione content Mean Plotted Value ([6]; CONC 100 uM): 0.0467 | Mitochondrial mass Mean Plotted Value ([6]; CONC 100 uM): 0.488 | Mitochondrial membrane potential Mean Plotted Value ([6]; CONC 100 uM): 0.132 | Oxidative stress Mean Plotted Value ([6]; CONC 100 uM): 0.234 | Spheroid count Mean Plotted Value ([6]; CONC 100 uM): 1 | Spheroid size Mean Plotted Value ([6]; CONC 100 uM): 0.58 | Cellular ATP MEC ([6]; HepaRG spheroid): 0.829 µM | DNA structure MEC ([6]; HepaRG spheroid): 3.51 µM | Glutathione content MEC ([6]; HepaRG spheroid): 0.876 µM | Mitochondrial mass MEC ([6]; HepaRG spheroid): 6.35 µM | Mitochondrial membrane potential MEC ([6]; HepaRG spheroid): 5.82 µM | Oxidative stress MEC ([6]; HepaRG spheroid): 1.46 µM | Spheroid size MEC ([6]; HepaRG spheroid): 2.63 µM | Cellular ATP MR (% @ concentration) [6, 7]: 100% | DNA structure MR (% @ concentration) [6, 7]: 95% | Glutathione content MR (% @ concentration) [6, 7]: 91% | Mitochondrial mass MR (% @ concentration) [6, 7]: 52% | Mitochondrial membrane potential MR (% @ concentration) [6, 7]: 88% | Oxidative stress MR (% @ concentration) [6, 7]: 37% | Spheroid size MR (% @ concentration) [6, 7]: 35% | Cellular ATP MR [6, 8]: -0.000228 | DNA structure MR [6, 8]: 0.0501 | Glutathione content MR [6, 8]: 0.0824 | Mitochondrial mass MR [6, 8]: 0.515 | Mitochondrial membrane potential MR [6, 8]: 0.132 | Oxidative stress MR [6, 8]: 1.36 | Spheroid size MR [6, 8]: 0.674 | AC50 ([6]; read-out: Cellular ATP AC50, HepaRG spheroid): 1.63 µM | AC50 ([6]; read-out: DNA structure AC50, HepaRG spheroid): 5.13 µM | AC50 ([6]; read-out: Glutathione content AC50, HepaRG spheroid): 2.19 µM | AC50 ([6]; read-out: Mitochondrial mass AC50, HepaRG spheroid): 35.7 µM | AC50 ([6]; read-out: Mitochondrial membrane potential AC50, HepaRG spheroid): 12.4 µM | AC50 ([6]; read-out: Oxidative stress AC50, HepaRG spheroid): 15.4 µM | AC50 ([6]; read-out: Spheroid count AC50, HepaRG spheroid): > 100 µM | AC50 ([6]; read-out: Spheroid size AC50, HepaRG spheroid): > 40 µM
